Results published in article PMC11879280, “Antimicrobial activity of peptoids against Metallo-β-lactamase-producing Klebsiella pneumoniae, Acinetobacter baumannii, Pseudomonas aeruginosa, and other WHO priority pathogens, including Candida auris” (Journal of Applied Microbiology, 2025).
Converted amounts (≈) assume the structure as drawn. Like-named read-outs stand apart in the source and are kept apart here. Square brackets hold non-standard residues; d marks the D form. Peptide text beside a SMILES is read from it. Nspe = C[C@H](NCC(=O)O)c1ccccc1; NDecylGly = CCCCCCCCCCNCC(=O)O; Nlys = NCCCCNCC(=O)O

Key:
[1] = system: C. auris CBS12373 biofilm; test: Anti-adherence (biofilm prevention), MTT reduction assay; type: cell-based, Candida auris
Protocol: Finally, 3-(4,5-Dimethylthiazol 2-yl)-2,5-diphenyltetrazolium bromide (MTT) reduction assay was performed to observe the metabolic activities of C. auris.

[2] = system: Gram-positive bacteria (Enteroc. faecalis and S. aureus)
Summary of the method: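 Growth inhibition was scored after 16–20 h shaking incubation (37°C, 120 rpm) of 5 × 10^5 CFU ml^−1 suspensions in Mueller–Hinton broth, cation-adjusted when antibiotics were tested.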

[3] = system: C. auris CBS12373 biofilm; test: Initial biofilm inhibition, crystal violet assay; type: cell-based, Candida auris; settings: crystal violet staining
Protocol: Another set of experiments was conducted under similar conditions similar to those used for MTT assay.

MDR ESKAPE pathogens = settings: ref Nielsen et al. [2022]; cited from earlier work
Text: TM8, TM15, and TM19 featured terminal alkyl tails of either N-decyl or N-tridecyl, while all of them contained chiral aromatic Nspe along with NLys residues. Similarly, TM2, TM4, TM12, TM14, and TM19 w ... || Lipopeptoids can self-assemble into micellar macromolecules due to the hydrophobic tail domains driven by the intermolecular hydrophobic interactions. […] In a ...

[4] = system: C. auris CBS12373 biofilm; type: cell-based, Candida auris; settings: for Mature biofilm inhibition, blank corrected 570 nm, av. of readings: MTT absorbance
Protocol: To assess disruption of mature biofilms, 2 × 10^5 cells were cultured for 2 h in 96-well flat bottom microtiter plates at 37°C, washed, then incubated for 48 h in fresh media to form mature biofilm. […] For each activity test, the metabolic activities of the yeast cells in biofilms were measured by MTT reduction assay after washing the disrupted biofilm with PBS (Srivastava and Ahmad [2020]).

C. auris CBS10913 = test: Membrane integrity by flow cytometry (SYTO 9 / PI); type: cell-based, Candida auris
Protocol: Afterwards, the cells were stained with SYTO 9 (7.5 µmol l^−1) and PI (30 µmol l^−1) for an additional 15 min in the dark at room temperature. Following washing, samples were then analysed for membrane integrity on a BD FACSymphony^TM A3, with a minimum of 10 000 events recorded per sample.

K. pneumoniae JIE2713 = test: Checkerboard microdilution synergy test; type: cell-based, Klebsiella pneumoniae
Protocol: (§1) Then, 10 µl of bacteria (5 × 10^6 CFU ml^−1) or C. auris (2.5 × 10^4 CFU ml^−1) were added to each well, except for the sterility control well. […] The sterility control wells contained only MHB (or RPMI in case of C. auris), and the growth control contained 110 µl of microbial inoculum with no antimicrobials. Subsequently, the plates were incubated for 18- 24 hours at 36 ± 1 °C.
(§2) The FIC for each combination interaction was calculated as follows:
(§3) Then, the summation of FIC (ƩFIC) was calculated for each antimicrobial combination as follows: ƩFIC = FICA + FICB. […] All antimicrobial synergy experiments were repeated in at least two independent runs.

K. pneumoniae JIE2709 = test: Checkerboard microdilution synergy test; type: cell-based, Klebsiella pneumoniae
Protocol: as §1, §2, §3

[5] = system: S. aureus, K. pneumoniae, P. aeruginosa, and En. cloacae biofilm; settings: ref Nielsen et al. [2022]; cited from earlier work
Text: Another way microbes can acquire tolerance and become resistant to antimicrobials is by the production of biofilms. In biofilms, microbes switch from planktonic state to sessile form, where they are encased in an extracellular polymeric substance matrix, thereby being protected from stressful environmental conditions (Di Fermo et al. [2024]). Most ESKAPEE pathogens and C. auris form antimicrobial tolerant biofilms associated with device-associated infections (Kean and Ramage [2019], Sarkar et al. [2024]). The antibiofilm activity of some of these peptoids has already been studied against ESKAP ...

[6] = as low as; ref Nielsen et al. [2022]; cited from earlier work
Text: Lipopeptoids can self-assemble into micellar macromolecules due to the hydrophobic tail domains driven by the intermolecular hydrophobic interactions. […] In a ...

C. auris CBS 10913 = test: Sorbitol protection assay; type: cell-based, Candida auris; settings: CBS10913
Text: Caspofungin served as a positive control for the assay (Leite et al. [2014]).

With `CCCCCCCCCCNCC(=O)N(CCCCN)CC(=O)N(CC(=O)N(CC(=O)N(CCCCN)CC(=O)N(CC(=O)N(CC(N)=O)[C@@H](C)c1ccccc1)[C@@H](C)c1ccccc1)[C@@H](C)c1ccccc1)[C@@H](C)c1ccccc1` [TM8] (H-[NDecylGly][Nlys][Nspe][Nspe][Nlys][Nspe][Nspe]-NH2) the “Biofilm tolerance factor-prevention (BPC/MIC)” value [1] was 8, the “Anti-adherence (BPC)” value ([1]; 2 h adhesion with agent, 48 h growth, ≥90% reduction) was 125 µg/mL and the MIC range [2] was 3.9 to 7.8 µg/mL. The “MBIC for initial biofilm” value [3] was 31.25 µg/mL, the “MIC against MDR ESKAPE pathogens” value (MDR ESKAPE pathogens) was under 13 µg/mL and the “Biofilm tolerance factor-eradication (MBEC/MIC)” value ([4]; C. auris CBS12373, MTT) was 4. The “Mature biofilm MBEC” value ([4]; CBS12373 biofilm, 48 h) was 62.5 µg/mL, the “Mature biofilm inhibition, blank corrected 570 nm, av. of readings” value (“Mature biofilm inhibition” below) ([4]; agent at 0.976562 (growth control 1.115)) was 1.684 and the “Mature biofilm inhibition” value ([4]; agent at 1.95312 (growth control 1.115)) was 1.307. The “Mature biofilm inhibition” value ([4]; agent at 3.90625 (growth control 1.115)) was 0.871, the “Mature biofilm inhibition” value ([4]; agent at 7.8125 (growth control 1.115)) was 0.456 and the “Mature biofilm inhibition” value ([4]; agent at 15.625 (growth control 1.115)) was 0.49. The “Mature biofilm inhibition” value ([4]; agent at 31.25 (growth control 1.115)) was 0.129, the “Mature biofilm inhibition” value ([4]; agent at 62.5 (growth control 1.115)) was 0 and the “Mature biofilm inhibition” value ([4]; agent at 125 (growth control 1.115)) was -0.0001. For the same molecule, the “Mature biofilm inhibition” value ([4]; agent at 250 (growth control 1.115)) was 0.02, the “Mature biofilm inhibition” value ([4]; agent at 500 (growth control 1.115)) was 0.02 and the Dead cells (C. auris CBS10913; TM8 at its MIC or 1% Triton X-100, 90 min, PBS control 0.2%) was 3.9%. For the same molecule, the “SYTO 9 fluorescent signal of C. auris” value (C. auris CBS10913; TM8 at its MIC, 90 min, 37°C, PBS, PBS control 51.7%) was 25.5%, the “Cells doubly stained with SYTO 9 and PI” value (C. auris CBS10913; TM8 at its MIC, 90 min, PBS control 0.7%) was 21.5% and the “MIC of TM8 (alone, checkerboard)” value (K. pneumoniae JIE2713) was 15.625 µg/mL. The FICTM8 (K. pneumoniae JIE2713; TM8 with Aztreonam) was 0.5, the “MF of TM8 (modulation factor)” value (K. pneumoniae JIE2713; TM8 with Aztreonam) was 2 and the “MIC of TM8 + DrugB” value (K. pneumoniae JIE2713; TM8 with Aztreonam) was 7.8125 µg/mL. For the same molecule, the ƩFIC (K. pneumoniae JIE2713; TM8 with Aztreonam) was 1, the FICTM8 (K. pneumoniae JIE2713; TM8 with Cefotaxime) was 0.5 and the “MF of TM8 (modulation factor)” value (K. pneumoniae JIE2713; TM8 with Cefotaxime) was 2. The ƩFIC (K. pneumoniae JIE2713; TM8 with Cefotaxime) was 1, the FICTM8 (K. pneumoniae JIE2713; TM8 with Ciprofloxacin) was 0.25 and the “MF of TM8 (modulation factor)” value (K. pneumoniae JIE2713; TM8 with Ciprofloxacin) was 4. For the same molecule, the ƩFIC (K. pneumoniae JIE2713; TM8 with Ciprofloxacin) was 0.273, the FICTM8 (K. pneumoniae JIE2713; TM8 with Gentamicin) was 0.5 and the “MF of TM8 (modulation factor)” value (K. pneumoniae JIE2713; TM8 with Gentamicin) was 2. For the same molecule, the ƩFIC (K. pneumoniae JIE2713; TM8 with Gentamicin) was 1, the “MIC of TM8 (alone, checkerboard)” value (K. pneumoniae JIE2709) was 15.625 µg/mL and the FICTM8 (K. pneumoniae JIE2709; TM8 with Cefotaxime) was 0.5. The “MF of TM8 (modulation factor)” value (K. pneumoniae JIE2709; TM8 with Cefotaxime) was 2, the Outcome (K. pneumoniae JIE2709; TM8 with Cefotaxime) was “Additive (Additive if 0.5<ƩFIC ≤ 1)” and the ƩFIC (K. pneumoniae JIE2709; TM8 with Cefotaxime) was 1. For the same molecule, the FICTM8 (K. pneumoniae JIE2709; TM8 with Ciprofloxacin) was 0.5, the “MF of TM8 (modulation factor)” value (K. pneumoniae JIE2709; TM8 with Ciprofloxacin) was 2 and the Outcome (K. pneumoniae JIE2709; TM8 with Ciprofloxacin) was “Additive (Additive if 0.5<ƩFIC ≤ 1)”. For the same molecule, the ƩFIC (K. pneumoniae JIE2709; TM8 with Ciprofloxacin) was 1, the FICTM8 (K. pneumoniae JIE2709; TM8 with Meropenem) was 0.5 and the “MF of TM8 (modulation factor)” value (K. pneumoniae JIE2709; TM8 with Meropenem) was 2. The ƩFIC (K. pneumoniae JIE2709; TM8 with Meropenem) was 0.625, the “Concentration with significant inhibition of biofilm formation” value [5] was 1.56 µg/mL and the “Concentration at which self-assembly into an ellipsoidal form is found” value [6] was 1000 ng/mL. For the same molecule, the “MIC in the presence of sorbitol” value (C. auris CBS 10913) was 7.8 µg/mL and the MIC without sorbitol (C. auris CBS 10913) was 7.8 µg/mL (≈ 6.99 µM).
